The source of these data is patent US20060046972A1, “Cytotoxic nucleoside analog compound 003 for treating cancer” (Parker Hughes Institute, priority 2004, published 2006).

“Also recorded” adds a separate entry of the source. Read-outs that look alike come from different tables or passages of the source.

Data set [1] has as its system esterase-mediated metabolism of Compound 003 in BT20 cells. Nature of the data set: Inhibition of ala-AZT-MP formation by esterase inhibitors, BT20. In kind it is cell-based, human. How it is done: (§1) BT20 breast cancer cells were cultured in a medium composed of MEM, 10% FBS, 0:1 mM of nonessential amino acids and Earles salts, and 1% penicillin/streptornyclin Nalm6 cells were maintained in a medium composed of RPMI, 10% fetal bovine serum (FBS) and 1% penicillin/streptomycin. BT20 cells were seeded in 6-cm petri-dishes at 4 million cells per plate. Nalm6 cells at a density of 10^6 cells per ml were also utilized in drug metabolism study. Either one plate of adherent cells or 10 million nonadherent cells were utilized at each experiment. Cells were incubated with DMSO or 100 μM of esterase inhibitor, paraoxon, bis(p-nitrophenyl)phosphate (BNPP), physostigmine, or phenylmethylsulfonyl fluoride (PMSF) (Sigma) for 3.0 minutes, followed by 1 hour incubation of 100 μM Compound 003. After incubation, cells were washed two times with ice-cold PBS, and extracted by addition of 60% methanol. Cell lysates were kept at −20° C. overnight, after which lysates were centrifuged at 15,000×g for 10 minutes to remove the cell debris. One hundred microliters of these lysates were injected directly to HPLC. The amount of metabolite product of the esterase reaction, ala-AZT-MP, was measured to examine the effect of inhibitors on esterase-mediated metabolism of Compound 003.

In data set [2] the test system is esterase-mediated metabolism of Compound 003 in Nalm6 cells. Nature of the data set: Inhibition of ala-AZT-MP formation by esterase inhibitors, Nalm6. In kind it is cell-based, human. The note with it: 100 μM inhibitor, then 100 μM Compound 003 1 hour. How it is done:
as §1

The test system of data set [3] is BT20 breast cancer cells. Description: Confocal laser scanning microscopy of microtubules / mitotic spindle, BT20. It is filed as cell-based, human. The note with it: 185 μM for 24 hours (AZT: similar concentrations). As to the method:
Immunofluorenscence was used to examine the spindle features of human cancer cell lines treated with Compound 003 or 0.5% DMSO. […] The coverslips were incubated with antibodies raised against α-tubulin, γ-tubulin (Sigma Chemical Co., St Louis, Mo.) (40 min 37° C.), washed in PBS-Tx-100, and incubated with an appropriate secondary antibody conjugated to FITC (Jackson ImmunoResearch, Westgrove, Pa.). Cellular DNA was labeled with 5 μM TOTO3 (Molecular Probes, Eugene, Oreg.) for 20 minutes. Coverslips were immediately inverted onto slides in Vectashield (Vector Labs, Burlingame, Calif.) to prevent photobleaching, sealed with nail varnish and stored at −20° C. The slides were examined using a Bio-Rad MRC-1024 Laser Scanning Confocal Microscope equipped with a Kr/Ar laser (BioRad, Hercules, Calif.) mounted on a Nikon Eclipse E800 upright microscope with high numerical aperture objectives (Nikon, Melville, N.Y.). Digital data were processed using Lasersharp (BioRad) and Adobe Photoshop software (Adobe Systems, Mountain View, Calif.). ( See, for example, Navara, et al., 2001, Anticancer Drugs. 12:369; Malaviya, et al., 2002, Leuk Lymphoma. 43, 1329; and Ghosh, 1998, Clin Cancer Res. 4, 2657).

Data set [4] is described as follows: Pharmacokinetics in CD-1 mice after intravenous or oral Compound 003. It is filed as in vivo. The note with it: female, CD-1, mouse. How it is done:
Each plasma sample (200 μL) was mixed 1:4 with acetone (800 μL) and vortexed for at least 30 seconds. Following centrifugation, the supernatant was transferred into a clean tube and dried under nitrogen. A 50 μL solution of 50% methanol in 200 mM HCl was used to reconstitute the extraction residue, and 35 μL was subjected to analytical HPLC. The analytical column used was a 250×4 mm Lichrospher 100, RP-18 (5 μm) and the guard column was a 4×4 mm Lichrospher 100, RP-18 (5 μm). The mobile phase was degassed automatically by the electronic degasser system. The column was equilibrated and eluted under gradient conditions utilizing a flow rate of 1.0 ml/min at ambient temperature. The linear gradient mobile phase was: 0 minute, 100% 10 mM ammonium phosphate buffer (pH 3.7); 20 minutes, 20% acetonitrile, 80% ammonium phosphate buffer (pH 3.7); 20.1-50 minutes, 28% acetonitrile, 72% water (0.1% HAC). The wavelength of detection was set at 270 nm. Peak width, response time and slit werep, set at >0.03 minutes, 0.5 s and 8 nm, respectively.
Female CD-1 mice (6-8 weeks old) (Charles River, Wilmington, Mass.) were housed in a USDA-accredited animal care facility under standard environmental conditions (12-h light/12-h dark photoperiod, 22±1° C., 60±10% relative humidity). All rodents were housed in microisolator cages (Lab Products, Inc., N.J.) containing autoclaved bedding. Mice were allowed free access to autoclaved pellet food and tap water throughout the study. All animal studies are approved by the Parker Hughes Institute Animal Care and Use Committee, and all animal care procedures conformed to the principles outlined in the Guide for the Care and Use of Laboratory Animals (National Research Council;. National Academy Press, Washington D.C. 1996).
Compound 003 (200 mg/kg) dissolved in DMSO was administered intravenously via tail vein to non-fasted mice or orally via gavage to 12-h fasted mice. Four to six mice per time-point were used for pharmacokinetic studies. Blood samples (˜500 μL) were obtained from the ocular venous plexus by retro-orbital venipuncture at 0, 5, 10, 15, 30, 45 minutes, and 1 h, 1.5 h, 2 h, 4 h, 6 h and 8 h after oral administration. All collected blood-samples were heparinized and centrifuged at 7000×g for 5 minutes to separate the plasma fraction from the whole blood. The plasma samples were then processed immediately using the extraction procedure described above.
Pharmacokinetic modeling and parameter calculations were carried out using the WinNonlin Professional Version 3.0 (Pharsight, Inc., Mountain, Calif.) pharmacokinetics software (Chen, C. L., et al., (1999) Pharm Res. 16:117; Chen, C. L., et al., (1999) Pharm Res. 16:1003; Uckun, F. M., et al., (1999) Clin Cancer Res. 5:2954). An appropriate model was chosen on the basis of the lowest sum of weighted squared residuals, the lowest Schwartz Criterion (SC), the lowest Akaike's Information Criterion (AIC) value, the lowest standard errors of the fitted parameters, and the dispersion of the residuals. The elimination half-life was estimated by linear regression analysis of the terminal phase of the plasma concentration-time profile. The systemic clearance (CL) was determined by dividing the dose by the AUC.

For data set [5] the following is noted: Wang et al. (1996); cited from earlier work.
In data set [6] the test system is BT20 breast cancer cell line. Description: Intracellular metabolism of Compound 003 to ala-AZT-MP, BT20. It is filed as in vitro ADME, human. An excerpt: (§2) Intracellular metabolism of Compound 003 was studied in CEM T-lineage lymphoma cell line, BT20 breast cancer cell line, T98 glioblastoma cell line, and Nalm-6 B-lineage leukemia cell line. CEM and Nalm6 cells were maintained in RPMI supplemented with 10% fetal bovine serum, and 1% penicillin/streptomycin. BT20 and T98 cells w.ere cultured in a medium composed of MEM, 10% fetal bovine serum, 0.1-mM of nonessential amino acids and Earles salts, and 1% penicillin/streptomycin. CEM and Nalm6 cells at a density of 10^6 cells per ml were utilized in the drug metabolism study. BT20 and T98 cells were seeded in 6-cm petri-dishes at 4 million cells and 2 million cells per plate, respectively, the day before the experiment. Either one plate of adherent cells or 10 million non-adherent cells was utilized at each time point. Cells were incubated with various concentrations of the compounds up to 24 hrs at 37° C. After incubation, cells were washed 2 times with ice-cold PBS, and extracted by addition of 0.5-1 ml of 60% methanol. Cell lysates were kept at −20° C. overnight, after which lysates were centrifuged at 15000×g for 10 minutes to remove the cell debris. One hundred microliters of these lysates were injected directly to HPLC. For half-life study, cells at the same density as in drug metabolism study were treated with 100 μM Compound 003 for 2 hrs, after which cells were washed 2 times with ice-cold PBS, and resuspended in warm media until the time they were harvested. For uptake and efflux study, cells were seeded at 2 million cells in 2 ml of media. […] With efflux experiments, cells 1×10^6/mL (the same density as in the uptake study) were incubated with 100 μM Compound 003 for 1 hr, washed 2 times with ice-cold PBS, and resuspended with culture medium without drug, and the metabolite efflux from cells to the medium was measured after 6 hr of incubation. […]

Data set [7] relates to CEM T-lineage lymphoma cell line. Nature of the data set: Intracellular metabolism of Compound 003 to ala-AZT-MP, CEM. In kind it is in vitro ADME, human.
Source text: as §2, with “methanol.” for “methanol. Cell lysates were kept at −20° C. overnight, after which lysates were centrifuged at 15000×g for 10 minutes to remove the cell debris. One hundred microliters of these lysates were injected directly to HPLC. For half-life study, cells at the same density as in drug metabolism study were treated with 100 μM Compound 003 for 2 hrs, after which cells were washed 2 times with ice-cold PBS, and resuspended in warm media until the time they were harvested. For uptake and efflux study, cells were seeded at 2 million cells in 2 ml of media.”

The subject of data set [8] is Nalm-6 B-lineage leukemia cell line. Nature of the data set: Intracellular metabolism of Compound 003 to ala-AZT-MP, Nalm6. It is filed as in vitro ADME, human.
Source text: as §2, with “methanol.” for “methanol. Cell lysates were kept at −20° C. overnight, after which lysates were centrifuged at 15000×g for 10 minutes to remove the cell debris. One hundred microliters of these lysates were injected directly to HPLC. For half-life study, cells at the same density as in drug metabolism study were treated with 100 μM Compound 003 for 2 hrs, after which cells were washed 2 times with ice-cold PBS, and resuspended in warm media until the time they were harvested. For uptake and efflux study, cells were seeded at 2 million cells in 2 ml of media.”

In data set [9] the test system is BT20 cells. Description: Metabolite efflux from cells to the medium. It is filed as in vitro ADME, human. The note with it: 100 μM Compound 003 1 hr, efflux after 6 hr. An excerpt:
Intracellular metabolism of Compound 003 was studied in CEM T-lineage lymphoma cell line, BT20 breast cancer cell line, T98 glioblastoma cell line, and Nalm-6 B-lineage leukemia cell line. CEM and Nalm6 cells were maintained in RPMI supplemented with 10% fetal bovine serum, and 1% penicillin/streptomycin. BT20 and T98 cells w.ere cultured in a medium composed of MEM, 10% fetal bovine serum, 0.1-mM of nonessential amino acids and Earles salts, and 1% penicillin/streptomycin. CEM and Nalm6 cells at a density of 10^6 cells per ml were utilized in the drug metabolism study. BT20 and T98 cells were seeded in 6-cm petri-dishes at 4 million cells and 2 million cells per plate, respectively, the day before the experiment. Either one plate of adherent cells or 10 million non-adherent cells was utilized at each time point. Cells were incubated with various concentrations of the compounds up to 24 hrs at 37° C. After incubation, cells were washed 2 times with ice-cold PBS, and extracted by addition of 0.5-1 ml of 60% methanol. […] With efflux experiments, cells 1×10^6/mL (the same density as in the uptake study) were incubated with 100 μM Compound 003 for 1 hr, washed 2 times with ice-cold PBS, and resuspended with culture medium without drug, and the metabolite efflux from cells to the medium was measured after 6 hr of incubation.

[10] abbreviates: iv, plasma metabolite following i.v. 200 mg/kg Compound 003.
[11] abbreviates: iv, plasma metabolite following i.v. 200 mg/kg Compound 003, read-out: elimination half-life (t1/2).
Setting [12] is: po, plasma metabolite following p.o. 200 mg/kg Compound 003.
Where [13] appears, read: plasma metabolite following oral 200 mg/kg Compound 003, read-out: elimination half-life.

Consider `CCOP(=O)(OCC)Oc1ccc([N+](=O)[O-])cc1` [paraoxon], for which, in data set [1], the “potency order of esterase inhibitors” value is listed as “paraoxon>BNPP>PMSF>physostigmine”. Moreover, the “inhibition of metabolism of Compound 003 to ala-AZT-MP” value in data set [2] is “most potent inhibitor; also recorded: only paraoxon was effective in inhibiting the metabolism”.

For orientation: AUC means concentration integrated over time. For orientation: Cmax means the highest concentration seen after dosing. By Tmax is commonly meant the time at which the peak concentration occurs. Regarding `Cc1cn([C@H]2C[C@H](N=[N+]=[N-])[C@@H](CO)O2)c(=O)[nH]c1=O` [AZT, 3′-azido-3′-deoxythymidine, reference compound], the effect on microtubules entry in data set [3] is listed as “no effect on microtubules”. The values for the AUC in [4] (setting [10]) and in data set [4] (setting [12]) were 152 µM·h and 386 ± 124 µM·h, respectively. Besides, the Cmax in [4] (setting [10]) was 64.3 µM; in [4] (setting [12]), 46.9 µM. Besides, the figures for the Tmax in [4] (setting [10]) and in data set [4] (setting [12]) were 50.4 min and 144 min, respectively. Moreover, the half-life in [4] (setting [11]) is 35 min; in [4] (setting [13]), 149 min. The “elimination t1/2 of AZT given as such” value in data set [5] was roughly 21.2 min.

On to `O=S(=O)(F)Cc1ccccc1` [PMSF, phenylmethyl sulfonyl fluoride], for which the “potency order of esterase inhibitors” value in [1] is on record as “paraoxon>BNPP>PMSF>physostigmine”.

On to `O=[N+]([O-])c1ccc(OP(=O)(O)Oc2ccc([N+](=O)[O-])cc2)cc1` [BNPP, Bis(p-nitrophenyl)phosphate], for which the “potency order of esterase inhibitors” value in [1] was “paraoxon>BNPP>PMSF>physostigmine”.

Consider `Cc1cn(C2CC(N=[N+]=[N-])C(COP(=O)(O)NC(C)C(=O)O)O2)c(=O)[nH]c1=O` (centres unmarked) [ala-AZT-MP, 3′-azido-3′-deoxythymidine-5′-alaninyl phosphate], for which the “further intracellular conversion of ala-AZT-MP” value in [6] is reported as “preferentially converted to AZT-MP”; in [7], “only AZT was detectable”; in data set [8], “converted to AZT first then to AZTmp”. In addition, the “intracellular accumulation of ala-AZT-MP, BT20 relative to the other three cell lines” value in data set [6] (25-100 μM Compound 003, 3 hr) is recorded as 6-12 fold. Further, in [7] (intact cells), the “level of ala-AZT-MP formation, CEM relative to Nalm6” value is listed as 2 fold. Also, the “efflux of ala-AZT-MP” value in data set [9] is listed as “only detectable from BT20 cells”. The AUC in [4] (setting [10]) worked out at 191 µM·h; in data set [4] (setting [12]), 20.7 ± 8.5 µM·h. For the same compound, the figures for the Cmax in [4] (setting [10]) and in data set [4] (setting [12]) were 1880 µM and 9.8 µM, respectively. Moreover, the Tmax in data set [4] (setting [10]) was 1.2 min; in [4] (plasma, 200 mg/kg, mice, after Compound 003, route not distinguished), less than 5 min; in data set [4] (setting [12]) it was 4.5 min. Moreover, the results for the half-life in [4] (setting [11]) and in data set [4] (setting [13]) were 33.2 min and 94.5 min, respectively.
